Test results published in ChEMBL document CHEMBL4311992, “Discovery of 3-(((9H-purin-6-yl)amino)methyl)-4,6-dimethylpyridin-2(1H)-one derivatives as novel tubulin polymerization inhibitors for treatment of cancer” (Eur J Med Chem, 2019).
The source made the active and inactive calls. The rule behind the calls is not given here.

What was measured:
[1] = system: SNF-related serine/threonine-protein kinase (Homo sapiens), Q9NRH2 [UNDEFINED MUTATION]; test: Inhibition of human SNRK E97G/P116A mutant (65 to 409 residues) using KKLRRTLSFAEPG as substrate measured after 40 mins in presence of [gamma33P]ATP by scintillation counting method; set-up: scale not given: the % may be the effect or the level left
[2] = target: MAP/microtubule affinity-regulating kinase 3 (Homo sapiens) (UniProt P27448); test: Inhibition of recombinant full-length human MARK3 assessed as residual activity at 10 uM using KKKVSRSGLYRSPSMPENLNRPR as substrate measured after 40 mins in presence of [gamma33P]ATP by scintillation counting method
[3] = target: Citron Rho-interacting kinase (Homo sapiens) (UniProt O14578); test: Inhibition of recombinant human CRIK assessed as residual activity at 10 uM using KKLRRTLSVA as substrate measured after 120 mins in presence of [gamma33P]ATP by scintillation counting method
[4] = target: 3-phosphoinositide-dependent protein kinase 1 (Homo sapiens) (UniProt O15530); test: Inhibition of recombinant human PDK1 (52 to end residues) assessed as residual activity at 10 uM using PDKtide as substrate measured after 40 mins in presence of [gamma33P]ATP by scintillation counting method
[5] = target: LIM domain kinase 1 (Homo sapiens) (UniProt P53667); test: Inhibition of recombinant human LIMK1 (285 to 638 residues) assessed as residual activity at 10 uM using cofilin as substrate measured after 40 mins in presence of [gamma33P]ATP by scintillation counting method
[6] = system: Hepatocyte growth factor receptor (Homo sapiens), P08581 [D1228N]; test: Inhibition of recombinant human MET A1209G/V1290L/D1246N mutant (974 to end residues) assessed as residual activity at 10 uM using KKKGQEEEYVFIE as substrate measured after 40 mins in presence of [gamma33P]ATP by scintillation counting method
[7] = target: Myosin light chain kinase 2, skeletal/cardiac muscle (Homo sapiens) (UniProt Q9H1R3); test: Inhibition of recombinant full-length human MYLK2 assessed as residual activity at 10 uM using KKLNRTLSFAEPG as substrate measured after 40 mins in presence of [gamma33P]ATP by scintillation counting method
[8] = target: T1, Tubulin (Homo sapiens) (UniProt P68371+Q9H4B7+P0DPH7+P68366+Q13509+Q71U36+P04350+Q3ZCM7+P07437+P68363+Q9BQE3+Q6PEY2+Q13885+Q9BVA1+Q9BUF5); test: Disruption of microtubule network in human HCT116 cells assessed as microtubule condensation at 50 nM incubated for 18 hrs by FITC/DAPI staining-based confocal microscopic analysis; format: cell-based
[9] = system: eIF-2-alpha kinase GCN2 (Homo sapiens), Q9P2K8 [E556G]; test: Inhibition of recombinant full-length human GCN2 E556G mutant assessed as residual activity at 10 uM using RSRSRSRSRSRSRSR as substrate measured after 40 mins in presence of [gamma33P]ATP by scintillation counting method
[10] = system: HCT-116; test: cells; conditions: Homo sapiens, HCT-116, 72 h
Description: Antiproliferative activity against human HCT116 cells after 72 hrs by MTT assay

[11] = target: T1, Tubulin (Homo sapiens); test: Disruption of microtubule network in human SW620 cells assessed as microtubule disorganization at 50 nM for 18 hrs by FITC/DAPI staining-based confocal microscopic analysis; format: cell-based
[12] = target: Tyrosine-protein kinase TXK (Homo sapiens) (UniProt P42681); test: Inhibition of human Txk (256 to end residues) using GEEPLYWSFPAKKK as substrate measured after 40 mins in presence of [gamma33P]ATP by scintillation counting method; set-up: scale not given: the % may be the effect or the level left
[13] = target: Tyrosine-protein kinase JAK2 (Homo sapiens) (UniProt O60674); test: Inhibition of recombinant human JAK2 (808 to end residues) assessed as residual activity at 10 uM using KTFCGTPEYLAPEVRREPRILSEEEQEMFRDFDYIADWC as substrate measured after 40 mins in presence of [gamma33P]ATP by scintillation counting method
[14] = target: Serine/threonine-protein kinase PAK 4 (Homo sapiens) (UniProt O96013); test: Inhibition of recombinant human PAK4 (295 to end residues) assessed as residual activity at 10 uM using myelin basic protein as substrate measured after 40 mins in presence of [gamma33P]ATP by scintillation counting method
[15] = target: Casein kinase I isoform epsilon (Homo sapiens) (UniProt P49674); test: Inhibition of human CK1epsilon assessed as residual activity at 10 uM using KRRRALS(p)VASLPGL as substrate measured after 120 mins in presence of [gamma33P]ATP by scintillation counting method
[16] = target: Serine/threonine-protein kinase 32B (Homo sapiens) (UniProt Q9NY57); test: Inhibition of recombinant full-length human STK32B assessed as residual activity at 10 uM using casein as substrate measured after 120 mins in presence of [gamma33P]ATP by scintillation counting method
[17] = system: A549; test: Antiproliferative activity against human A549 cells assessed as reduction in cell viability after 72 hrs by MTT assay; format: functional, cell-based; conditions: A549, 72 h
[18] = target: PI3K p110 beta/p85 alpha (Homo sapiens) (UniProt P27986+P42338); test: Inhibition of recombinant full-length human PI3K p110beta/p85alpha assessed as residual activity at 10 uM using phosphatidylinositol-4, 5-bisphosphate as substrate measured after 40 mins by fluorescence assay; format: protein-complex assay
[19] = target: Insulin-like growth factor 1 receptor (Homo sapiens) (UniProt P08069); test: Inhibition of recombinant human activated IGF1R (959 to end residues) assessed as residual activity at 10 uM using KKKSPGEYVNIEFG as substrate measured after 40 mins in presence of [gamma33P]ATP by scintillation counting method
[20] = target: Leucine-rich repeat serine/threonine-protein kinase 2 (Homo sapiens) (UniProt Q5S007); test: Inhibition of recombinant human LRRK2 (970 to end residues) assessed as residual activity at 10 uM using RLGRDKYKTLRQIRQ as substrate measured after 40 mins in presence of [gamma33P]ATP by scintillation counting method
[21] = target: Vascular endothelial growth factor receptor 2 (Homo sapiens) (UniProt P35968); test: Inhibition of recombinant human KDR (790 to end residues) assessed as residual activity at 10 uM using myelin basic protein substrate measured after 40 mins in presence of [gamma33P]ATP by scintillation counting method
[22] = target: Cyclin-dependent kinase 1/cyclin B1 (Homo sapiens) (UniProt P06493+P14635); test: Inhibition of recombinant full-length human CDK1/cyclinB assessed as residual activity at 10 uM using histone H1 as substrate measured after 40 mins in presence of [gamma33P]ATP by scintillation counting method; format: protein-complex assay
[23] = system: Tyrosine-protein kinase BTK (Homo sapiens), Q06187 [R28H]; test: Inhibition of full-length recombinant human BTK R28H mutant assessed as residual activity at 10 uM using LSNLYHQGKFLQTFCGSPLYRRR as substrate measured after 40 mins in presence of [gamma33P]ATP by scintillation counting method
Tyrosine-protein kinase BTK (Homo sapiens), Q06187 [R28H], sequence (Q06187 whole entry R28H): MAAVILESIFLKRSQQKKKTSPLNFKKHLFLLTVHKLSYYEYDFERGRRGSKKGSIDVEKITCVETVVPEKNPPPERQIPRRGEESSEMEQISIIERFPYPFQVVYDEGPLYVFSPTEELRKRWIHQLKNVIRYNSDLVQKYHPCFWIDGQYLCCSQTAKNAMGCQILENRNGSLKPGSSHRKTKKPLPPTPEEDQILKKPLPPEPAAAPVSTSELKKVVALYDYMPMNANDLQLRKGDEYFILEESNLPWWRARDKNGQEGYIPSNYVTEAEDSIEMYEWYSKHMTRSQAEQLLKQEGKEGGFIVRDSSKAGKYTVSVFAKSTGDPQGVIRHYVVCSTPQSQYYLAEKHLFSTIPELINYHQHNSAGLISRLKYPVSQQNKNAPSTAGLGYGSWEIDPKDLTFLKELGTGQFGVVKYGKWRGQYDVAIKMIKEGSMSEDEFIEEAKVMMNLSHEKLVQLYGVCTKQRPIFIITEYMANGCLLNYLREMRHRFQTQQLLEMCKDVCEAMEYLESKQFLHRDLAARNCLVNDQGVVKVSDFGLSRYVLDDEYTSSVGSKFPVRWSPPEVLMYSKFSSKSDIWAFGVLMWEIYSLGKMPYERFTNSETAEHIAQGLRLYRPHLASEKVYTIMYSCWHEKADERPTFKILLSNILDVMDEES

Insulin-like growth factor 1 receptor (Homo sapiens), sequence (P08069 31-736 limits assumed): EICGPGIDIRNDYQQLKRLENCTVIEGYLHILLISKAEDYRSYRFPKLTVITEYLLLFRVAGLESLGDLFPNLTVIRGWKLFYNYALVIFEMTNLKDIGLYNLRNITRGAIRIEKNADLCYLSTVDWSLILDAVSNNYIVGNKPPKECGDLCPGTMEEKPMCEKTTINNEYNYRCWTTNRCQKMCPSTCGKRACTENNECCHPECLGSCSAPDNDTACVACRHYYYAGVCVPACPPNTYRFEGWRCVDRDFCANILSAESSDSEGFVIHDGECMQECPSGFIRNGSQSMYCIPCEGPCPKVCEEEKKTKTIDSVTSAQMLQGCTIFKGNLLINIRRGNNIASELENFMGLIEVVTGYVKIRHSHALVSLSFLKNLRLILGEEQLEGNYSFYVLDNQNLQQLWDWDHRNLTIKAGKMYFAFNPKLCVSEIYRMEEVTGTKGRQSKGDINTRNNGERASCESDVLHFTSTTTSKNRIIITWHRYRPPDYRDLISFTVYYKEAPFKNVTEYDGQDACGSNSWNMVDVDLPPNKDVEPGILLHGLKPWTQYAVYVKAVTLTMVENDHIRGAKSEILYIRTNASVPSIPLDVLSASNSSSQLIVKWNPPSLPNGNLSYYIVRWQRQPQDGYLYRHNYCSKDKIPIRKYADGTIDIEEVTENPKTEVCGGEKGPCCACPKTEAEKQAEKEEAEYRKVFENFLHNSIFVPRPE
Insulin-like growth factor 1 receptor (Homo sapiens), sequence (P08069 741-1367 limits assumed): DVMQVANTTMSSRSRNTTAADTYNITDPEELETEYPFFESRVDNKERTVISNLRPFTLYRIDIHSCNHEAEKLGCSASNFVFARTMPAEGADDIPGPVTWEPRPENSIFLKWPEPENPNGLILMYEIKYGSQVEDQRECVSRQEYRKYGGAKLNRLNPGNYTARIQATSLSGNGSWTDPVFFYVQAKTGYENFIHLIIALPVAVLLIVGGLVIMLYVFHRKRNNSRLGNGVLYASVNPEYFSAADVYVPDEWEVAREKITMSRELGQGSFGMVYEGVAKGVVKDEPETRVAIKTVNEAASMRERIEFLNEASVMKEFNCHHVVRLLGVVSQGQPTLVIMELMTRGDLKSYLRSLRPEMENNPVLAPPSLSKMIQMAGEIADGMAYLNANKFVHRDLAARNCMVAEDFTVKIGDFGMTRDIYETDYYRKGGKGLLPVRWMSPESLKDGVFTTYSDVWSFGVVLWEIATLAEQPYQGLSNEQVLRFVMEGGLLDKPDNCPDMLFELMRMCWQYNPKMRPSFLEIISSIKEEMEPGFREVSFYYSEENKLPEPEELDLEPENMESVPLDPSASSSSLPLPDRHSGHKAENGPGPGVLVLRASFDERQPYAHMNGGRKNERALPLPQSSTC
Myosin light chain kinase 2, skeletal/cardiac muscle (Homo sapiens), sequence (Q9H1R3 whole entry): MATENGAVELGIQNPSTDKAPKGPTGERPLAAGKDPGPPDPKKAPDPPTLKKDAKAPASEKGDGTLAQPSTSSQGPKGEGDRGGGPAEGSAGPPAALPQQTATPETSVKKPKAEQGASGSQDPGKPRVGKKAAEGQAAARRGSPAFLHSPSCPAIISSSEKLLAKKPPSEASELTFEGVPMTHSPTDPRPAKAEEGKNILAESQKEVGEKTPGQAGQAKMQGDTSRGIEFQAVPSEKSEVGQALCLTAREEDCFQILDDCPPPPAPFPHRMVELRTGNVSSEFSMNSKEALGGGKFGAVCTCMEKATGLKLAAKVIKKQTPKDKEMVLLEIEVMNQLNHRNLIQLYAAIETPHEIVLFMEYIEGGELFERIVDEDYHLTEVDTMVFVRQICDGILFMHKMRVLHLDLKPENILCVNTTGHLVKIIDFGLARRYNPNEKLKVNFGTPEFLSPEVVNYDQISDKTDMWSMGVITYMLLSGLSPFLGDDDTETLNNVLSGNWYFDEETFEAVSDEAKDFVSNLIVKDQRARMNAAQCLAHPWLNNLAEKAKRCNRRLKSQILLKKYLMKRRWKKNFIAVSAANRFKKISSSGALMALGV
Leucine-rich repeat serine/threonine-protein kinase 2 (Homo sapiens), sequence (Q5S007 whole entry): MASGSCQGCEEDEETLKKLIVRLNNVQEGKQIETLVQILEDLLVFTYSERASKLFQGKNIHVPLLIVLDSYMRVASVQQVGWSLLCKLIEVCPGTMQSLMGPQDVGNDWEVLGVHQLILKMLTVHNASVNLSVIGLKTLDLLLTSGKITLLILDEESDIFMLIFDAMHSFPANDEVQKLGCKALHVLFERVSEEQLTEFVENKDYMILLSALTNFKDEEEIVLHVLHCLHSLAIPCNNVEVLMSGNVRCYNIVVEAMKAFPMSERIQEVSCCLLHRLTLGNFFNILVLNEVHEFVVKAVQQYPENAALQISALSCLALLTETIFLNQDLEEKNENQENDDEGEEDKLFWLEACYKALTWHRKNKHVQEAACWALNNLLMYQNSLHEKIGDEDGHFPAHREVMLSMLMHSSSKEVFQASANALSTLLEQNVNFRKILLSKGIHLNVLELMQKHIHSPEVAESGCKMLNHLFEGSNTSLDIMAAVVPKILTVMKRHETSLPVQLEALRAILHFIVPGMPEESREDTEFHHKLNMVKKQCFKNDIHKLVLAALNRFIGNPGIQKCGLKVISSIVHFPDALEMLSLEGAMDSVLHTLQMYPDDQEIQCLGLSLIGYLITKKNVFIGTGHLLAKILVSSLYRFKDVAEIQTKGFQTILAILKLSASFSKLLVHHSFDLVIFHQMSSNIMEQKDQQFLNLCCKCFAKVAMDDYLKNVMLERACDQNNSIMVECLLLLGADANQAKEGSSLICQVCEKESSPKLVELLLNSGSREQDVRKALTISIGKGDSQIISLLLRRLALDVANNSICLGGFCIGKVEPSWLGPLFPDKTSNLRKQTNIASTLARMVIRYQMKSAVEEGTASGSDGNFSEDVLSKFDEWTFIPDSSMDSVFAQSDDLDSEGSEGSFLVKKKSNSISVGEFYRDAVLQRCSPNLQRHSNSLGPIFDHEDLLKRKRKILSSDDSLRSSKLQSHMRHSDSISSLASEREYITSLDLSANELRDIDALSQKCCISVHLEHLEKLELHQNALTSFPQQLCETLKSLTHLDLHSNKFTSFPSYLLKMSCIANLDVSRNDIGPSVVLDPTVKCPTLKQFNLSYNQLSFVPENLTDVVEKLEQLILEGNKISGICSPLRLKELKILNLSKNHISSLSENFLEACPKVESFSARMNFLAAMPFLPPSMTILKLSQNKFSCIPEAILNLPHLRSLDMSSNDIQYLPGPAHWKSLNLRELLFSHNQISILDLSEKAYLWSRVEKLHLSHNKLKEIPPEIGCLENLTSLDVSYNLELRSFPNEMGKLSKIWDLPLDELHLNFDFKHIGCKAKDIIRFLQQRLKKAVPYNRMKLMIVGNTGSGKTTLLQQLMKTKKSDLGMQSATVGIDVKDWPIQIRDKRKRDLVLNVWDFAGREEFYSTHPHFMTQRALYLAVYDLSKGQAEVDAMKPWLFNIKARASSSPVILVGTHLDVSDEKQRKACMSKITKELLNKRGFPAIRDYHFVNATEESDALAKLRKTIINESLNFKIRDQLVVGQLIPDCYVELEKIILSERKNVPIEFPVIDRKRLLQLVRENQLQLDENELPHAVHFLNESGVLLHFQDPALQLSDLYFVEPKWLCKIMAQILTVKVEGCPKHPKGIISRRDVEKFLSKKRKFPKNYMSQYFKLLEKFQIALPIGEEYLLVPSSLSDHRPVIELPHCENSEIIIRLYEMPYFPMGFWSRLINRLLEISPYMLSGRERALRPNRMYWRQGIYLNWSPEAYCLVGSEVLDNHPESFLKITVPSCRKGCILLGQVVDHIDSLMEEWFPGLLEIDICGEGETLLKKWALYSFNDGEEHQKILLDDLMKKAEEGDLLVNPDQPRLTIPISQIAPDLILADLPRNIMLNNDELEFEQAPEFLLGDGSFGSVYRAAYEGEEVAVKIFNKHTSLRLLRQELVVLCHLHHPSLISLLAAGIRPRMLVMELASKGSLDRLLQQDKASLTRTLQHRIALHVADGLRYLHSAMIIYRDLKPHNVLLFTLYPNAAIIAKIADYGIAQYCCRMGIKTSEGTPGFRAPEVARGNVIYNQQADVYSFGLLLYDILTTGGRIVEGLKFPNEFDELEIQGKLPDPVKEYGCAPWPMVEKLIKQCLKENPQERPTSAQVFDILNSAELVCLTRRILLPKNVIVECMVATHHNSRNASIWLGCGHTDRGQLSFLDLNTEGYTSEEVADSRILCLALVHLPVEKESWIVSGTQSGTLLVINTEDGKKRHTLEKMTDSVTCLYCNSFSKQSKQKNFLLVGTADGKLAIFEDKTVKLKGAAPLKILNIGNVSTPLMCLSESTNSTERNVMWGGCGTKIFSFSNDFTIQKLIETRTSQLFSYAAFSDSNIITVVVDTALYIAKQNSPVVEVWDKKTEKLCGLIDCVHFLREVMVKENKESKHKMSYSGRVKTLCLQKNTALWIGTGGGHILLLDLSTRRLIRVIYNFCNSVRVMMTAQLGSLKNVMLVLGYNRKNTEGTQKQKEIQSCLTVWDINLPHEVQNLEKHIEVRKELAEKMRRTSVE

Cc1cc(C)c(CNc2nc(Cl)nc3c2ncn3C2CCCC2)c(=O)[nH]1 was tested, and the Activity [1] was 111%, the Activity [2] was 90% and the Activity [3] was 109%. For the same molecule, the Activity [4] was 91%, the Activity [5] was 101% and the Activity [6] was 112%. The Activity [7] was 98%, the Activity [8] was “Active” and the Activity [9] was 110%. The IC50 [10] was 60 nM, the Activity [11] was “Active” and the Activity [12] was 84%. The Activity [13] was 115%, the Activity [14] was 106% and the Activity [15] was 100%. The Activity [16] was 98%, the IC50 [17] was 98 nM and the Activity [18] was 104%. For the same molecule, the Activity [19] was 90.5%, the Activity [20] was 100% and the Activity [21] was 107%. For the same molecule, the Activity [22] was 102% and the Activity [23] was 98%.
